US11766413B2 (Nacuity Pharmaceuticals, Inc., priority 2019, dated 2023)
Entries after “also recorded” stand apart in the source; their conditions may differ.

What was measured:
[1] = Evaluation of retinal penetration of NACA: NACA and NAC levels in plasma, aqueous, vitreous and retina after NACA in drinking water; type: in vivo, mice (rd10/rd10 and wild type C57/BL6); settings: for concentration at 7 days: mouse, retina, oral, 20 mg/mL in drinking water, 20 mg/mL NACA in drinking water, P28 to P35, estimated dose 60-80 mg/day; for mean levels in the retina compared with plasma / measurability in the retina: animals treated with NACA; for measurability in the retina: N=20 eyes per strain; for measurements in aqueous, vitreous and retina: nearly all measurements, limit of quantification of the assay
Procedure: Animals and Treatments. Mice were treated in accordance with the recommendations of the Association for Research in Vision and Ophthalmology. Litters of homozygous rd10/rd10 mice (B6.CXB1-Pde6brd10/J) and wild type C57/BL6 mice (The Jackson Laboratory, Bar Harbor, Me.) were used for these studies.
Starting on post-natal day 28 (P28), animals were given normal drinking water (n=10 for each strain) or water containing 20 mg/ml NACA (n=10 for each strain).
Analysis of NACA and NAC. Upon sacrifice of the mice on P35, retina, aqueous, vitreous and plasma were collected, weighed, and stabilized as quickly as possible and stored at −80° C. prior to shipment to AIT Bioscience, LLC (Indianapolis, Ind.). The bioanalytical method (BAM.0445.01) for the quantitation of total NAC NACA in K2EDTA was based on derivatization, protein precipitation extraction, and LC-MS/MS instrumental analysis. Any disulfides were reduced to free thiols and subsequently reacted with 2-chloro-1-methylpyridinium iodide (CMPI) to form stable thioethers. The thioether derivatives were detected by LC-MS/MS. Stable label isotope internal standards were used. The method covered a concentration range from 50.0 to 50,000 ng/mL. The thiol moiety of NAC, NACA, and their respective internal standards oxidizes quickly in plasma through formation of disulfides. In order to determine total NAC and total NACA levels in plasma, tris(2-carboxyethyl)phosphine (TCEP) is added during the extraction to reduce disulfide bonds. Ammonium bicarbonate is added to control sample pH near neutral, as TCEP will otherwise acidify the aliquoted samples and hinder derivatization. The free analyte is then derivatized to a stable thioether using 2-chloro-1-methylpyridinium iodide (CMPI). N-acetyl-L-cysteine is used as the reference standard. The assay would not discern the enantiomer, N-acetyl-D-cysteine, if present. A sample volume of 25.0 μL was aliquotted into a 1.2 mL 96-well plate to which was added, in sequence, 25.0 μL internal standard solution (1000 ng/mL NAC-D3 and 1000 ng/mL NACA-D3 in water), 50.0 μL of ammonium bicarbonate (100 mM), 5.0 μL CMPI (60 mM in water), and 5.0 μL of TCEP (60 mM in water). Samples were allowed to react for 30 minutes. To precipitate proteins, 500 μL of acetonitrile was then added to all samples. The plate was covered and the mixtures were shaken and centrifuged. A 50.0 μL aliquot of the supernatant was transferred from each well to a clean plate containing 400 μL of water-acetonitrile (25-75) in each well, and mixed well prior to LC-MS injection.
Samples were analyzed on a Waters Acquity liquid chromatograph interfaced with a Thermo Scientific TSQ Vantage triple quadrupole mass spectrometer with ESI ionization. Each extracted sample was injected (5.0 μL) onto a Waters BEH HILIC column (2.1×100 mm; 1.7 μm) equilibrated at 35° C. Mobile Phase A was ammonium formate (25 mM, pH 3.8). Mobile Phase B was acetonitrile. The LC gradient is tabled below: […]
Peak area ratios from the calibration standard responses were regressed using a (1/concentration^2) linear fit for N-Acetyl-L-Cysteine and N-Acetylcysteine amide.
Evaluation of Retinal Penetration of NACA. To determine retinal levels of NACA/NAC after administration of 20 mg/mL NACA in drinking water for 7 days. This experiment will provide rapid confirmation that NACA and/or NAC penetrate the retina following oral administration. This experiment will also evaluate if the breakdown in the blood-retinal barrier in RP affects the levels of NACA in the retina by comparing animals with RP to wild type mice.
Rd10 and C57BL/6 wild type mice will begin treatment at P28 and at P35 mice will be euthanized and plasma, vitreous and retina samples will be sent to AITB for determination of NAC and NACA levels. Experimental groups: (n=10/group). The research was performed in 3 discrete experiments: […]

[2] = humans, oral dose of 600 mg; cited from earlier work
diabetic rats = settings: cited from earlier work
[3] = biological target: T1, glutamate cysteine ligase (GCL, EC 6.3.2.2) (Homo sapiens, UniProt P48506); settings: substrate of GCL; read-out: apparent Km; cited from earlier work
T1 sequence (P48506 1-637): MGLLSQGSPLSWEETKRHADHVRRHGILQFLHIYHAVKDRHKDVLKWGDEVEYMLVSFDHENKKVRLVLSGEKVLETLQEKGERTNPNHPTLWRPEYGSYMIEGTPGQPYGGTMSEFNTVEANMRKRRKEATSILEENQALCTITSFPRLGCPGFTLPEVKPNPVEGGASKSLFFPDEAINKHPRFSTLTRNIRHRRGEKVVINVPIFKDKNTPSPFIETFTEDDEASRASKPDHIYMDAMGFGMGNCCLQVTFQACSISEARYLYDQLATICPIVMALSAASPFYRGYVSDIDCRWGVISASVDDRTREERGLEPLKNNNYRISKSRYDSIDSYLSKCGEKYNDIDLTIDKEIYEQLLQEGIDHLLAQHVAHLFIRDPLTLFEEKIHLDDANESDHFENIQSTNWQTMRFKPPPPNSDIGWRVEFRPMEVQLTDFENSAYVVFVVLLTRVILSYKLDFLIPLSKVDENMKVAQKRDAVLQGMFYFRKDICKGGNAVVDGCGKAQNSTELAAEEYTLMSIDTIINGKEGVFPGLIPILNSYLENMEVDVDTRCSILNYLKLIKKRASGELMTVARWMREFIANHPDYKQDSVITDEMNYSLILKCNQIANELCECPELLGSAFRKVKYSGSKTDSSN
T1 sequence (P48507 1-274 partner): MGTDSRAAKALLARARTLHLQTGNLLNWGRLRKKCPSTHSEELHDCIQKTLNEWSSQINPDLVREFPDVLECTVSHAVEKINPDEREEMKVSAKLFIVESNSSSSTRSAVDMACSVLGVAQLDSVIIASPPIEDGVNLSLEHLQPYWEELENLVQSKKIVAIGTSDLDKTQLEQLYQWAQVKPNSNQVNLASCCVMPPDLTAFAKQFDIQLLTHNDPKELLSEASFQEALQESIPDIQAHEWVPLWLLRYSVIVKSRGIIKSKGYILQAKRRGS

[4] = 20 mg/ml NACA in drinking water

| mean levels in aqueous humor compared with plasma [1, 4] | concentration at 7 days ([1]; C57/BL6 (wild type), wild type mice) | mean concentration in the aqueous humor, rd10 compared with wild type ([1]; N=8 eyes rd10, N=10 C57/B16) | mean levels in the retina compared with plasma [1] | measurability in the retina [1] | mean NACA levels in plasma compared with NAC levels ([1]; both strains, 20 mg/ml NACA in drinking water, N=10 per strain) | measurements in aqueous, vitreous and retina [1] | concentration at 7 days ([1]; rd10/rd10 (B6.CXB1-Pde6brd10/J), rd10 mice) | SMILES | mean levels in plasma, rd10 compared with wild type [1, 4] | ratio of NACA:NAC in the retina, rd10 compared with C57/B16 ([1]; oral NACA 20 mg/mL in drinking water) | time after administration at which no NAC is detectable [2] | expression of VEGF and ICAM-1 (diabetic rats; after 5-month treatment) | up-regulation of VEGF and ICAM-1 expression in retinal blood vessels (diabetic rats) | reactive oxygen species contents in the retinas (diabetic rats; most significantly at 5 months) | retinal pathological changes (electron and light microscopy) (diabetic rats; sacrificed at 3 and 5 months) | Km [3] |
| --- | --- | --- | --- | --- | --- | --- | --- | --- | --- | --- | --- | --- | --- | --- | --- | --- |
| lower than in plasma | ~2400 ng/g | higher in rd10 mice than wild type | higher than those observed in plasma | measurable in all animals | greater than the NAC levels | BLQ | ~6500 ng/g | CC(=O)N[C@@H](CS)C(N)=O | greater in rd10 mice than in the wild type | penetrated retina to a greater extent in rd10 mice than in C57/B16 mice; also recorded: greater in the retina of rd10 mice than in C57/B16 mice |  |  |  |  |  |  |
| lower than in plasma |  |  | higher than those observed in plasma | measurable in all animals |  | BLQ |  | CC(=O)N[C@@H](CS)C(=O)O [NAC, N-acetyl-L-cysteine, reference compound] | greater in rd10 mice than in the wild type |  | 10 to 12 h | returned to basal levels | attenuated | decreased reactive oxygen species | alleviated the pathological changes |  |
|  |  |  |  |  |  |  |  | N[C@@H](CS)C(=O)O [cysteine, L-cysteine] |  |  |  |  |  |  |  | 100 to 300 µM |
